Read-outs that look alike come from different tables or passages of the source.
Key:
EGFR L858R/T790M/C797S = EGFR L858R/T790M/C797S (Homo sapiens, UniProt P00533, C797S/L858R/T790M); assay: Biochemical EGFR kinase assay (Lance Ultra TR-FRET), triple mutant L858R/T790M/C797S
Outline: (§1)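 Step 1: compound in kinase buffer, 0.003–10 μM. Step 2: kinase reaction 1 h at room temperature. Step 4: TR-FRET read at 615/665 nm; IC50 calculated.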

EGFR L858R/C797S = EGFR L858R/C797S (Homo sapiens, UniProt P00533, C797S/L858R); assay: Biochemical EGFR kinase assay (Lance Ultra TR-FRET), double mutant L858R/C797S
Sequence of EGFR L858R/C797S (P00533 25-1210 C797S/L858R): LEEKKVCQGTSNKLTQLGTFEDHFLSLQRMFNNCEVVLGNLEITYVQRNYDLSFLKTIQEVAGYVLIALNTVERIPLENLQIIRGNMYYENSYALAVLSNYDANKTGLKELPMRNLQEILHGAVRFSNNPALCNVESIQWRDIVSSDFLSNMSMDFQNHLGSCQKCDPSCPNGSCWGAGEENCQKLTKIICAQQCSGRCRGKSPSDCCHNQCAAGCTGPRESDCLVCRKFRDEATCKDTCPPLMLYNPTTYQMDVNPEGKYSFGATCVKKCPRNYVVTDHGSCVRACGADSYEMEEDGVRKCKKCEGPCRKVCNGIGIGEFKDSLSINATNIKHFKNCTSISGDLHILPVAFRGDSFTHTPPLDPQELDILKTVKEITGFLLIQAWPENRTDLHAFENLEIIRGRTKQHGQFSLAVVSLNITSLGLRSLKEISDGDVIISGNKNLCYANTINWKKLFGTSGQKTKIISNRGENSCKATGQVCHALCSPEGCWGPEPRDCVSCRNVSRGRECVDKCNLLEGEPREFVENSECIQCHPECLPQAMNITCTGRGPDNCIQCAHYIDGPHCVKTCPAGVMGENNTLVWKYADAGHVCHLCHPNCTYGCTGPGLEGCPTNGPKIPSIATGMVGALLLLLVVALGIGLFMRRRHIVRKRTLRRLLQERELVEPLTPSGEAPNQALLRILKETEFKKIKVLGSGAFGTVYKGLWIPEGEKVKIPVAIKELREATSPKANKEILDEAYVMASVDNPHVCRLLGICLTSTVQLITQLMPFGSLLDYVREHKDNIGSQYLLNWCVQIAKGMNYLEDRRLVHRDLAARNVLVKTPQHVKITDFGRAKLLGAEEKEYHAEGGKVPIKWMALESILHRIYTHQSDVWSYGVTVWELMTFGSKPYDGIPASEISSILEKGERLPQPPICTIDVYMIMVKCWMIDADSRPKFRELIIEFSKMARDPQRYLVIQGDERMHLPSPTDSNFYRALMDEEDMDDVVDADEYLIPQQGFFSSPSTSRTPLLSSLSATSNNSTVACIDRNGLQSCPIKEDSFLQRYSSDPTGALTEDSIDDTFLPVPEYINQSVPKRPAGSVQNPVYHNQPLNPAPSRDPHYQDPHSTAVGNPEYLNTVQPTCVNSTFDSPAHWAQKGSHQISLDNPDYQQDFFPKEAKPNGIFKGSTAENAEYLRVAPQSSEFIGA
Outline: as §1

EGFR wildtype (WT) = EGFR wildtype (WT) (Homo sapiens, UniProt P00533); assay: Biochemical EGFR kinase assay (Lance Ultra TR-FRET), wildtype
Sequence of EGFR wildtype (WT) (P00533 25-1210): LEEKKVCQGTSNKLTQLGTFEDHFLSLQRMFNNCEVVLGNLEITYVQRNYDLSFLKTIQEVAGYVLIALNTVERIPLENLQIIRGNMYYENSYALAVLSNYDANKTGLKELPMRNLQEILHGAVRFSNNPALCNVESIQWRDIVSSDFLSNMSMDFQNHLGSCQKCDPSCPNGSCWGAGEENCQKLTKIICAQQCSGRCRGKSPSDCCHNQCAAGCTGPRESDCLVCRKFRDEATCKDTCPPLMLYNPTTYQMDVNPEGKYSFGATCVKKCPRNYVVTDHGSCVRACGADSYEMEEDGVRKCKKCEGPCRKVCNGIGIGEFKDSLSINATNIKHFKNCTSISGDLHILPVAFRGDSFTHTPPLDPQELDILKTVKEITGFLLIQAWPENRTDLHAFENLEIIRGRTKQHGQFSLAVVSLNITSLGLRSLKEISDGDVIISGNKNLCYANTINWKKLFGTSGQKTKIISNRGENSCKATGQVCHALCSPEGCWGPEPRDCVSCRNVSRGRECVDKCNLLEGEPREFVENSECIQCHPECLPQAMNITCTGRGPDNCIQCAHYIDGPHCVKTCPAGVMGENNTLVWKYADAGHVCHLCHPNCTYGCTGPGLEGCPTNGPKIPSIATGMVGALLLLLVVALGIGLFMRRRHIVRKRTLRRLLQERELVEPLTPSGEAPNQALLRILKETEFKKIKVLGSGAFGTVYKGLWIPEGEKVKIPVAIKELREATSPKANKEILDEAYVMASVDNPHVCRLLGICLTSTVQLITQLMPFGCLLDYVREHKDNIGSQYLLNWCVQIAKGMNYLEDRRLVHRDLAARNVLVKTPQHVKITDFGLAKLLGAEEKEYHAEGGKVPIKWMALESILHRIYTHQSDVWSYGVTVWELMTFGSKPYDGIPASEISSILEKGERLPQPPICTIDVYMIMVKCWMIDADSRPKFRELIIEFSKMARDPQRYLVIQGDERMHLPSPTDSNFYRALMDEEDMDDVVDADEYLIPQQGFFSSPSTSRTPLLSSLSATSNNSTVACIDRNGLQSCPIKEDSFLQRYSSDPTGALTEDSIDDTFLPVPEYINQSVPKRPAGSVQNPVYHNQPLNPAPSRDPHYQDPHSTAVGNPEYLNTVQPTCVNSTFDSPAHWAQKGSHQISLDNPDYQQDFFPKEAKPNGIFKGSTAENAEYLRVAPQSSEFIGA
Outline: as §1

EGFR del19/T790M/C797S = EGFR del19/T790M/C797S (Homo sapiens, UniProt P00533, C797S/DEL746-750/T790M); assay: Biochemical EGFR kinase assay (Lance Ultra TR-FRET), triple mutant del19/T790M/C797S
Sequence of EGFR del19/T790M/C797S (P00533 with tags, fused parts or gaps DEL746-750/T790M/C797S): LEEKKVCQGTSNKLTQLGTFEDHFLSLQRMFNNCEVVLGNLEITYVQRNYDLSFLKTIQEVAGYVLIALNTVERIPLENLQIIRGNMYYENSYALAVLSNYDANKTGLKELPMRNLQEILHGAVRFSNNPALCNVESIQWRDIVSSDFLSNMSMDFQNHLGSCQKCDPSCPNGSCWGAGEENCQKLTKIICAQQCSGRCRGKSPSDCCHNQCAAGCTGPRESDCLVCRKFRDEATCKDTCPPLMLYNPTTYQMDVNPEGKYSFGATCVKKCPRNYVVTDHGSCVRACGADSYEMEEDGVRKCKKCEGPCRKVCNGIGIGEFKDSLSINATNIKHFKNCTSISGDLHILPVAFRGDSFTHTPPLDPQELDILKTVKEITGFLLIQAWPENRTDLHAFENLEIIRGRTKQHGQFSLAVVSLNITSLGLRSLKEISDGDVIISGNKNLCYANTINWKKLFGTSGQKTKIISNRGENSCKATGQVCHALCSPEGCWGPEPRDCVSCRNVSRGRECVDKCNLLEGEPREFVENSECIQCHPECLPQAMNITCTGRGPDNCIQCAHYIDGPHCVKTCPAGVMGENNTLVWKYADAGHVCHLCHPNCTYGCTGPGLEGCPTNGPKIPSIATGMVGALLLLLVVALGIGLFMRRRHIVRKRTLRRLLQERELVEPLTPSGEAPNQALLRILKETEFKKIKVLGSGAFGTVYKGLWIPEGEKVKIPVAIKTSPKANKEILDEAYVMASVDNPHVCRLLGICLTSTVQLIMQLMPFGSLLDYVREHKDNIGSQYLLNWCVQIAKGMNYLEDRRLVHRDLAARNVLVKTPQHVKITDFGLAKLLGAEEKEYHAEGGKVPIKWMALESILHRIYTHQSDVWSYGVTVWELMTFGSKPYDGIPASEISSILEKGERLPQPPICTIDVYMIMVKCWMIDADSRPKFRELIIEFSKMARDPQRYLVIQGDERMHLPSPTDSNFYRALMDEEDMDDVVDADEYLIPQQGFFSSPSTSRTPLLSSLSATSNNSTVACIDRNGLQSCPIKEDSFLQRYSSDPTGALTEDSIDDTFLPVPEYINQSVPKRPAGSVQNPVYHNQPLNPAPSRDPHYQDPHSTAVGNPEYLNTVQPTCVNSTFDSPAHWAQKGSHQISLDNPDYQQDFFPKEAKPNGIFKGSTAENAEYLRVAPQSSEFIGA
Outline: as §1

EGFR del19/C797S = EGFR del19/C797S (Homo sapiens, UniProt P00533, C797S/DEL746-750); assay: Biochemical EGFR kinase assay (Lance Ultra TR-FRET), double mutant del19/C797S
Outline: as §1

[1] = Km ATP, read-out: IC50 L858R/T790M/C797S (nM) Km ATP
[2] = Km ATP, read-out: IC50 L858R/C797S (nM) Km ATP
[3] = Km ATP, read-out: IC50 WT (nM) Km ATP
[4] = Km ATP, read-out: IC50 del19/T790M/C797S (nM) Km ATP
[5] = Km ATP, read-out: IC50 del19/C797S (nM) Km ATP
[6] = IC50 L858R/T790M/C797S (nM) 100 μM ATP, 100 μM ATP
[7] = IC50 L858R/C797S (nM) 100 μM ATP, 100 μM ATP
[8] = IC50 WT (nM) 100 μM ATP, 100 μM ATP
[9] = IC50 del19/T790M/C797S (nM) 100 μM ATP, 100 μM ATP
[10] = IC50 del19/C797S (nM) 100 μM ATP, 100 μM ATP
[11] = Km ATP, read-out: IC50 L858R/T790M/C797S, Km ATP
[12] = Km ATP, read-out: IC50 L858R/C797S, Km ATP
[13] = Km ATP, read-out: IC50 WT, Km ATP
[14] = Km ATP, read-out: IC50 del19/T790M/C797S, Km ATP
[15] = Km ATP, read-out: IC50 del19/C797S, Km ATP

Sequence of EGFR L858R/T790M/C797S (P00533 25-1210 T790M/C797S/L858R): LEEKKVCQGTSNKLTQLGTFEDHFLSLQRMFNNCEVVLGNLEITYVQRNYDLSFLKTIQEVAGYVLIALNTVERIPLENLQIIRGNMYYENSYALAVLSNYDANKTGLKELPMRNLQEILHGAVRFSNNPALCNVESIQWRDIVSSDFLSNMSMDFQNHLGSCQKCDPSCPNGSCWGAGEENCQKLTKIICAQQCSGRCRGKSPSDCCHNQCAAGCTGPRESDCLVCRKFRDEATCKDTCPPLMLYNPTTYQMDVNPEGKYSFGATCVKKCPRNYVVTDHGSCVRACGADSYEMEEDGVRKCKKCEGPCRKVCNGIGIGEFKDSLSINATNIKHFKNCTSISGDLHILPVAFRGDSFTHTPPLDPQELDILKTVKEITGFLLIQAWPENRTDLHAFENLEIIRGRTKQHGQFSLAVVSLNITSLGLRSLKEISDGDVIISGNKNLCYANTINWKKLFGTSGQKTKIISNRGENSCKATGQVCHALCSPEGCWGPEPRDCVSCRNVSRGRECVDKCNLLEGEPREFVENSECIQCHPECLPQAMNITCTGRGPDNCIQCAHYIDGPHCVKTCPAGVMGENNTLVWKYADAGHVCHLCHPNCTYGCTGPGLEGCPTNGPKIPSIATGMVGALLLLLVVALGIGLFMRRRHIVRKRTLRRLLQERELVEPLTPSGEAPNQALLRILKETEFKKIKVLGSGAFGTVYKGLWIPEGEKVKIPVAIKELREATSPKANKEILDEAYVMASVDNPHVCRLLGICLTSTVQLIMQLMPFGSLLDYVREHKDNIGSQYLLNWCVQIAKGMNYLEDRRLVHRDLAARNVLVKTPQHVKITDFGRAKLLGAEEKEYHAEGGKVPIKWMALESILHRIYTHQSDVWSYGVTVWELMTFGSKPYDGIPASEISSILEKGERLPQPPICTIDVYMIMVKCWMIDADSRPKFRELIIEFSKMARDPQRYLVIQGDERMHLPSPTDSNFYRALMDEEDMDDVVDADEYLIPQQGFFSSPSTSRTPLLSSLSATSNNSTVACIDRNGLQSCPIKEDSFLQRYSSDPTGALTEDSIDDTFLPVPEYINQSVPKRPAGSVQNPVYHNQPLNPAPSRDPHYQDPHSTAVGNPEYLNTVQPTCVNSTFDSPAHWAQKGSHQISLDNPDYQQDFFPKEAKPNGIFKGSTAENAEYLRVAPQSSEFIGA

SMILES	IC50 (EGFR L858R/T790M/C797S; [1])	IC50 (EGFR L858R/C797S; [2])	IC50 (EGFR wildtype (WT); [3])	IC50 (EGFR del19/T790M/C797S; [4])	IC50 (EGFR del19/C797S; [5])	IC50 (EGFR L858R/T790M/C797S; [6])	IC50 (EGFR L858R/C797S; [7])	IC50 (EGFR wildtype (WT); [8])	IC50 (EGFR del19/T790M/C797S; [9])	IC50 (EGFR del19/C797S; [10])	IC50 (EGFR L858R/T790M/C797S; [11])	IC50 (EGFR L858R/C797S; [12])	IC50 (EGFR wildtype (WT); [13])	IC50 (EGFR del19/T790M/C797S; [14])	IC50 (EGFR del19/C797S; [15])
COc1cc(-c2nccc(Nc3cc(N[C@H]4CC[C@@](C)(O)CC4)c(-c4ccn(C(F)F)n4)cn3)n2)ccn1 [Example 169, (1s,4s)-4-((5-(1-(Difluoromethyl)-1H-pyrazol-3-yl)-2-((2-(2-methoxypyridin-4-yl)pyrimidin-4-yl)amino)pyridin-4-yl)amino)-1-methylcyclohexan-1-ol]	15.5 nM	43.4 nM	325 nM	20.1 nM	110 nM	–	–	–	–	–	–	–	–	–	–
Cc1cc(-c2cnc(Nc3ccnc(-c4cnn(S(=O)(=O)C5CC5)c4)n3)cc2N[C@H]2CC[C@@](C)(O)CC2)nn1C [Example 291, (1s,4s)-4-((2-((2-(1-(Cyclopropylsulfonyl)-1H-pyrazol-4-yl)pyrimidin-4-yl)amino)-5-(1,5-dimethyl-1H-pyrazol-3-yl)pyridin-4-yl)amino)-1-methylcyclohexan-1-ol]	0.2 nM	0.3 nM	0.3 nM	0.3 nM	0.2 nM	0.3 nM	–	941 nM	0.4 nM	0.6 nM	–	–	–	–	–
C[C@]1(O)CC[C@@H](Nc2cc(Nc3ccnc(-c4cnn(S(=O)(=O)C5CC5)c4)n3)nnc2-c2ccn(C(F)F)n2)CC1 [Example 372, (1s,4s)-4-((6-((2-(1-(Cyclopropylsulfonyl)-1H-pyrazol-4-yl)pyrimidin-4-yl)amino)-3-(1-(difluoromethyl)-1H-pyrazol-3-yl)pyridazin-4-yl)amino)-1-methylcyclohexan-1-ol]	–	–	–	–	–	–	–	–	–	–	0.2 nM	3.7 nM	108 nM	0.6 nM	6.9 nM
CC(=O)N1CC=C(c2nccc(Nc3cc(N[C@H]4CC[C@@](C)(O)CC4)c(-c4ccn(C(F)F)n4)cn3)n2)CC1 [Example 159, 1-(4-(4-((5-(1-(Difluoromethyl)-1H-pyrazol-3-yl)-4-(((1s,4s)-4-hydroxy-4-methylcyclohexyl)amino)pyridin-2-yl)amino)pyrimidin-2-yl)-3,6-dihydropyridin-1(2H)-yl)ethan-1-one]	11.7 nM	291 nM	327 nM	19.2 nM	2050 nM	–	–	–	–	–	–	–	–	–	–
Cn1nc(-c2cnc(Nc3ccnc(-c4cnn(S(=O)(=O)C5CC5)c4)n3)cc2NC[C@H]2CC[C@@H](O)C2)cc1C(F)(F)F [Example 261, (1R,3S)-3-(((2-((2-(1-(Cyclopropylsulfonyl)-1H-pyrazol-4-yl)pyrimidin-4-yl)amino)-5-(1-methyl-5-(trifluoromethyl)-1H-pyrazol-3-yl)pyridin-4-yl)amino)methyl)cyclopentan-1-ol]	0.8 nM	5.6 nM	6.4 nM	0.1 nM	5.8 nM	1.4 nM	22.7 nM	> 10000 nM	1.2 nM	77.9 nM	–	–	–	–	–
C[C@]1(O)CC[C@@H](Nc2cc(Nc3nc(-c4cnn(S(=O)(=O)C5CC5)c4)ncc3F)ncc2-c2ccn(CC(F)F)n2)CC1 [Example 345, (1s,4s)-4-((2-((2-(1-(Cyclopropylsulfonyl)-1H-pyrazol-4-yl)-5-fluoropyrimidin-4-yl)amino)-5-(1-(2,2-difluoroethyl)-1H-pyrazol-3-yl)pyridin-4-yl)amino)-1-methylcyclohexan-1-ol]	–	–	–	–	–	–	–	–	–	–	0.9 nM	0.3 nM	22.2 nM	0.4 nM	4.6 nM
CN(C)CC[C@H]1CC[C@@H](Nc2cc(Nc3nc(-c4cnn(S(=O)(=O)C5CC5)c4)ncc3F)ncc2-c2ccn(C(F)F)n2)CC1 [Example 325, N^2-(2-(1-(Cyclopropylsulfonyl)-1H-pyrazol-4-yl)-5-fluoropyrimidin-4-yl)-5-(1-(difluoromethyl)-1H-pyrazol-3-yl)-N^4-((1s,4s)-4-(2-(dimethylamino)ethyl)cyclohexyl)pyridine-2,4-diamine]	0.1 nM	0.3 nM	1.2 nM	0.2 nM	0.6 nM	–	–	–	–	–	–	–	–	–	–
Cc1nn(CC(F)(F)F)cc1-c1nccc(Nc2cc(N[C@H]3CC[C@@H](CCO)CC3)c(-c3cc(C(F)(F)F)n(C)n3)cn2)n1 [Example 334, 2-((1s,4s)-4-((2-((2-(3-Methyl-1-(2,2,2-trifluoroethyl)-1H-pyrazol-4-yl)pyrimidin-4-yl)amino)-5-(1-methyl-5-(trifluoromethyl)-1H-pyrazol-3-yl)pyridin-4-yl)amino)cyclohexyl)ethan-1-ol]	–	–	–	–	–	–	–	–	–	–	2.8 nM	17.1 nM	24.6 nM	4.2 nM	41.2 nM
CC1(O)CCC(Nc2cc(Nc3ccnc(-c4cnn(C5CCCCO5)c4)n3)ncc2-c2ccn(C(F)F)n2)CC1 (stereo not shown) [Example 314, (1s,4s)-4-((5-(1-(Difluoromethyl)-1H-pyrazol-3-yl)-2-((2-(1-(tetrahydro-2H-pyran-2-yl)-1H-pyrazol-4-yl)pyrimidin-4-yl)amino)pyridin-4-yl)amino)-1-methylcyclohexan-1-ol]	0.5 nM	75.2 nM	595 nM	1.9 nM	133 nM	1.9 nM	1480 nM	> 10000 nM	5.2 nM	300 nM	–	–	–	–	–

Second part, the compound after the results:

IC50 (EGFR L858R/T790M/C797S; [1])	IC50 (EGFR L858R/C797S; [2])	IC50 (EGFR wildtype (WT); [3])	IC50 (EGFR del19/T790M/C797S; [4])	IC50 (EGFR del19/C797S; [5])	IC50 (EGFR L858R/T790M/C797S; [6])	IC50 (EGFR L858R/C797S; [7])	IC50 (EGFR wildtype (WT); [8])	IC50 (EGFR del19/T790M/C797S; [9])	IC50 (EGFR del19/C797S; [10])	IC50 (EGFR L858R/T790M/C797S; [11])	IC50 (EGFR L858R/C797S; [12])	IC50 (EGFR wildtype (WT); [13])	IC50 (EGFR del19/T790M/C797S; [14])	IC50 (EGFR del19/C797S; [15])	SMILES
9.1 nM	26.5 nM	276 nM	25.9 nM	119 nM	–	–	–	–	–	–	–	–	–	–	O=S(=O)(C1CC1)n1cc(-c2nccc(Nc3cc(NC4CCC(CCF)CC4)c(-c4ccn(C(F)F)n4)cn3)n2)cn1 (stereo not shown) [Example 216, N^2-(2-(1-(Cyclopropylsulfonyl)-1H-pyrazol-4-yl)pyrimidin-4-yl)-5-(1-(difluoromethyl)-1H-pyrazol-3-yl)-N^4-(4-(2-fluoroethyl)cyclohexyl)pyridine-2,4-diamine]
0.1 nM	1.4 nM	10 nM	–	0.4 nM	1.4 nM	43.9 nM	> 10000 nM	0.1 nM	0.8 nM	–	–	–	–	–	Cn1ccc(-c2cnc(Nc3ccnc(-c4cnn(S(=O)(=O)C5CC5)c4)n3)cc2N[C@H]2CC[C@H](CO)CC2)n1 [Example 229, ((1r,4r)-4-((2-((2-(1-(Cyclopropylsulfonyl)-1H-pyrazol-4-yl)pyrimidin-4-yl)amino)-5-(1-methyl-1H-pyrazol-3-yl)pyridin-4-yl)amino)cyclohexyl)methanol]
0.8 nM	0.5 nM	13.2 nM	1.4 nM	2.4 nM	–	–	–	–	–	–	–	–	–	–	Cn1ccc(-c2cnc(Nc3ccnc(-c4cnn(S(=O)(=O)C5CC5)c4)n3)cc2N[C@H]2CC[C@@H](F)CC2)n1 [Example 174, N^2-(2-(1-(Cyclopropylsulfonyl)-1H-pyrazol-4-yl)pyrimidin-4-yl)-N^4-((1s,4s)-4-fluorocyclohexyl)-5-(1-methyl-1H-pyrazol-3-yl)pyridine-2,4-diamine]
0.1 nM	0.1 nM	0.3 nM	0.2 nM	0.3 nM	–	–	–	–	–	–	–	–	–	–	CN1CCC(n2ccc(-c3cnc(Nc4ccnc(-c5cnn(S(=O)(=O)C6CC6)c5)n4)cc3N[C@H]3CC[C@@](C)(O)CC3)n2)CC1 [Example 287, (1s,4s)-4-((2-((2-(1-(Cyclopropylsulfonyl)-1H-pyrazol-4-yl)pyrimidin-4-yl)amino)-5-(1-(1-methylpiperidin-4-yl)-1H-pyrazol-3-yl)pyridin-4-yl)amino)-1-methylcyclohexan-1-ol]
0.2 nM	5.3 nM	8.2 nM	0.6 nM	1.1 nM	1.2 nM	25.4 nM	> 10000 nM	0.8 nM	2.4 nM	–	–	–	–	–	Cn1nc(-c2cnc(Nc3ccnc(-c4cnn(S(=O)(=O)C5CC5)c4)n3)cc2N[C@H]2CC[C@@H](NCCF)CC2)cc1C(F)(F)F [Example 255, N^2-(2-(1-(Cyclopropylsulfonyl)-1H-pyrazol-4-yl)pyrimidin-4-yl)-N^4-((1s,4s)-4-((2-fluoroethyl)amino)cyclohexyl)-5-(1-methyl-5-(trifluoromethyl)-1H-pyrazol-3-yl)pyridine-2,4-diamine]
1.1 nM	5.2 nM	7.5 nM	4.3 nM	2.1 nM	1.6 nM	29.1 nM	294 nM	3.7 nM	6 nM	–	–	–	–	–	CN(C)C(=O)[C@H]1CC[C@@H](Nc2cc(Nc3ccnc(-c4cnn(S(=O)(=O)C5CC5)c4)n3)ncc2-c2cc(C(F)(F)F)n(C)n2)CC1 [Example 257, (1s,4s)-4-((2-((2-(1-(Cyclopropylsulfonyl)-1H-pyrazol-4-yl)pyrimidin-4-yl)amino)-5-(1-methyl-5-(trifluoromethyl)-1H-pyrazol-3-yl)pyridin-4-yl)amino)-N,N-dimethylcyclohexane-1-carboxamide]

From patent US12258327B2, “5-membered heteroaryl-containing aminopyridine compounds as EGFR inhibitors” (YUHAN CORPORATION, priority 2021, dated 2025)
